Reference: PubChem BioAssay AID743170 (Sanford-Burnham Center for Chemical Genomics, 2013)
“And” between values parts separate entries of the source, which are not always exact repeats. Equal values may be shown once. The source made the active and inactive calls.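 Rule for the calls: active = compounds that lower Nile red lipid droplet staining in rat heart muscle cells with dose, giving a fitted IC50; inactive = the rest.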

These compounds were tested on H9c2 cells, Nile red TAG accumulation, high-content imaging (assay: inhibitors of cytoplasmic TAG accumulation in H9c2, dose response, imaging, H9c2 cells, high-content screening (AID 743170)).

| SMILES | IC50 |
| --- | --- |
| CSCCCN1Cc2cccc(C(=O)Nc3cccc(-c4nc5ccccc5[nH]4)c3)c2C1=O | 526 nM |
| COc1ccccc1CCN1Cc2cccc(C(=O)Nc3cccc(-c4nc5ccccc5[nH]4)c3)c2C1=O | 432 nM |
| CCOC(=O)c1cccc(NC(=O)c2cccc3c2C(=O)N(CCOC)C3)c1 | > 50000 nM (inactive) |
| COCCn1cnc2cccc(C(=O)Nc3cccc(-c4nc5ccccc5[nH]4)c3)c2c1=O | > 50000 nM (inactive) |
| COCCN1Cc2cccc(C(=O)NCc3cccc(N(C)C)c3)c2C1=O | > 50000 nM (inactive) |
| COCCN1Cc2cccc(C(=O)Nc3nc4ccccc4[nH]3)c2C1=O | > 50000 nM (inactive) |
| CCOCCN1Cc2cccc(C(=O)Nc3cccc(-c4nc5ccccc5[nH]4)c3)c2C1=O | 792 nM |
| O=C(Nc1cccc(-c2nc3ccccc3[nH]2)c1)c1cccc2c1C(=O)N(CCc1ccccc1)C2 | 11200 nM |
| COCCN1Cc2cccc(C(=O)Nc3cccc(-c4nc5ccccc5[nH]4)c3)c2C1=O | 567 nM and 569 nM and 839 nM |
| COCCN1Cc2cccc(C(=O)Nc3cccnc3)c2C1=O | > 50000 nM (inactive) |
| COCCN1Cc2cccc(C(=O)Nc3cccc(C(=O)Nc4ccccc4)c3)c2C1=O | 2330 nM |
| O=C(Nc1cccc(-c2nc3ccccc3[nH]2)c1)c1cccc2c1C(=O)N(CCOc1ccccc1)C2 | 793 nM |
| COCCN1Cc2cccc(C(=O)Nc3cccc(-c4nc5ccc(F)cc5[nH]4)c3)c2C1=O | 762 nM |
| O=C(Nc1cccc(-c2nc3ccccc3[nH]2)c1)c1cccc2c1C(=O)N(CCN1CCOCC1)C2 | 1750 nM |
| CCCCN1Cc2cccc(C(=O)Nc3cccc(-c4nc5ccccc5[nH]4)c3)c2C1=O | 760 nM |

Now from value to compound:

| IC50 | SMILES |
| --- | --- |
| 2490 nM | COCCN1Cc2cccc(C(=O)Nc3cccc(C(=O)Nc4ccccc4OC)c3)c2C1=O |
| 393 nM | COCCN1Cc2cccc(C(=O)Nc3cccc(-c4nc5ccc(C)cc5[nH]4)c3)c2C1=O |
| 1370 nM | COCCCN1Cc2cccc(C(=O)Nc3cccc(-c4nc5ccccc5[nH]4)c3)c2C1=O |
| 1020 nM | COCCN1Cc2cccc(C(=O)Nc3cccc(-c4nc5ccc(Cl)cc5[nH]4)c3)c2C1=O |
| 352 nM | COCCN1Cc2cccc(C(=O)Nc3cccc(-c4nc5ccc(C(F)(F)F)cc5[nH]4)c3)c2C1=O |
| > 50000 nM (inactive) | COCCN1Cc2cccc(C(=O)Nc3nc4ccccc4n3C)c2C1=O |
| 662 nM | O=C(Nc1cccc(-c2nc3ccccc3[nH]2)c1)c1cccc2c1C(=O)N(CC1CC1)C2 |
| 829 nM | COc1ccc(CCN2Cc3cccc(C(=O)Nc4cccc(-c5nc6ccccc6[nH]5)c4)c3C2=O)cc1OC |
